Test results reported in patent publication US5686426A, “Dicarboxymethylated glycolipid derivatives as cell adhesion inhibitors” (Bristol-Myers Squibb Company, priority 1994, dated 1997).
pIC50: −log10 of the molar value.

Legend:
[1] = tested on: HL-60 cells / activated platelets (P-selectin); test: HL-60 Platelet Cell Adhesion Assay; format: cell-based; conditions: HL-60 cell adhesion to thrombin-activated human platelets
Method: HL-60 cells, obtained from American Type Culture Collection, were cultured in RPMI 1640 medium (GIBCO) supplemented with 20% fetal calf serum (Sigma) and 50 μg/ml gentamicin (GIBCO). Cells in log phase growth were harvested, washed and resuspended in Tyrodes buffer containing 5 mM HEPES and 0.2% bovine serum albumin and were fixed with 1% buffered formalin.
Blood from normal human donors was anticoagulated with citrate, layered over 1-Step Platelets (Accurate Chemical Co.), and centrifuged at 350 g for 20 minutes at room temperature. The platelet band was collected, diluted in 2 volumes of Tyrode's Buffer with 5 mM HEPES, 10 mM EDTA, and 0.2% BSA (pH 7.4) (THEB) and centrifuged at 600 g for 10 minutes. The platelet pellet was resuspended in THEB and incubated at room temperature for 1 hour. Calcein-acetoxy methylester (Calcein-Am, Molecular Probes) was added to the platelets at a final concentration of 10 μM and incubated for 10 minutes at 37° C. to label the platelets. Without washing, the platelets were counted on a Coulter counter model ZM, and the concentration was adjusted to 1×10^7 /ml. The platelets were activated with 2 U/ml of human thrombin for 10 minutes in Tyrode's containing 2 mM CaCl2, 5 mM HEPES, and 0.2% BSA (pH 7.4) (THB) at 37° and immediately fixed with 1% buffered formalin for 1 to 2 hours at room temperature. A small aliquot of labeled platelets was removed before activation and designated as non-activated.
Both platelets and HL-60 were washed in a ≥5 fold excess volume of Hanks Balanced Salt Solution (HBSS), resuspended in THB and counted. Cell concentrations were adjusted to 2×10^7 /ml for platelets and 4×10^6 /ml for HL-60, this ratio determined to be optimum for platelet: HL-60 cell adhesion. Compounds were incubated with 50 μl of platelets for 30 minutes at room temperature before addition of 50 μl of HL-60. This ratio of 5:1 platelets to HL-60 was incubated for 30 minutes at room temperature before addition of 0.2 ml of THB to increase the volume so the samples could be analyzed on a FACScan cytometer (Becton Dickinson). Non-activated platelets, and activated platelets with 10 mM EDTA were included as controls. Data were collected within a region set for the forward scatter channel corresponding to HL-60 size events.
The percent HL-60 cells which contained bound platelets was determined for each test condition. The inhibition of binding was determined by comparison to standards which were treated with vehicle alone (representing 0% inhibition) and standards whose specific binding had been blocked by the use of EDTA (representing 100% inhibition), by the following formula: [formula] where x=HL-60 cells containing bound platelets in the presence of the compound;
b=HL-60 cells containing bound platelets in the presence of EDTA;
a=HL-60 cells containing bound platelets in presence of compound vehicle;
z=% inhibition of platelet: HL-60 cell adhesion

[2] = tested on: reverse passive Arthus reaction in rats; test: Reverse Passive Arthus Reaction in Rats (RPA); format: in vivo, Male Sprague Dawley rats; conditions: rat, single IV dose 3 mg, 4 hours
Excerpt: The reverse passive Arthus reaction in rats is a modification of the method by Mulligan et al., as described in J. Clin. Invest., (1991) 88: 1396-1406. This is an experimental model in which the interaction of antigen-antibody complexes and complement leads to a severe vasculitis that is associated with edema, induration, erythema and hemorrhage. The interaction between the antigen-antibody complexes and complement leads to a localized influx of neutrophils. These neutrophils release a variety of mediators that are associated with tissue damage and vascular permeability. The localized inflammatory reaction is measured using different techniques i.e., vascular permeability and neutrophil influx which is evaluated both biochemically and microscopically.
Male Sprague Dawley specific pathogen-free rats with jugular vein cannulae (280-320 g, Hill Top Labs, Pa.) are used in these studies. Animals are acclimated for at least 1 day and individually housed in stainless steel cages. The dorsal region of the rats is closely clipped 2 days prior to the experiments and divided into 4 sites on each side of the midline. Prior to all injections the rats are sedated with 0.4 ml per 300 gm rat of ketamine/rompun [1000 mg (10 ml) of ketamine HCL is mixed with 40 mg (2.0 ml) Rompun] administered IP and or inhalation anesthesia with metafane (methoxyflurane).
Bovin Serum Albumin (BSA) and rabbit polyclonal IgG rich in anti-BSA are purchased from Sigma Chemical Co. (St. Louis, Mo.). Radiolabelled ^125 I-BSA (spAct 1-5 μCi/μg) is purchased from Dupont NEN (Boston, Mass.).
Each rat is administered intradermal (ID) injection of (0.4 mg, 0.6 mg and 0.8 mg) anti-BSA in a volume of 100 μl per injection in normal saline. The ID injections are randomized near the mid dorsal region on both sides of the back bone. Immediately after the ID injections of the anti-BSA, the rats are administered intravenous (IV) injections of BSA (10 mg in 1.0 ml) in normal saline containing ^125 I labeled BSA (1 μCi/ml BSA or 5.0 μCi/kg body wt) for quantification of dermal vascular injury. Anti-inflammatory agents such as inhibitors of adhesion molecules of the present invention are administered IV at a single dose of 3 mg immediately after BSA. Four (4) hours after the IV injection of BSA, the rats are anesthetized with metafane and 2 to 3 ml of blood is withdrawn via the cannula into an anticoagulant containing (EDTA or Heparin) tube and plasma separated and saved for neutrophil and albumin quantitation. The rats are killed and the skin surrounding the injection site (15 mm diameter) is punched out and weighed. The skin samples and a fixed volume of plasma (0.1 to 1.0 ml) is analyzed in a gamma-counter for ^125 I content. Skin samples from the contralateral side are processed and analyzed for myeloperoxidase activity (MPO) as a measure of neutrophil accumulation. As needed, samples are also processed for histological evaluation of the reacted sites.
Vascular Permeability (VP)
The calculation of the plasma protein exudation into skin is made by determining the radioactivity in the tissue and relating this to the level of radioactive albumin in the blood at the time of sacrifice. […] [formula]
Percent inhibition of the test compound at 3 mg was determined as follows: [formula] Myeloperoxidase (MPO)
MPO is located in the azurophil granules of polymorphonuclear leukocytes (PMN). Because of its abundance in these cells (5% dry weight), this enzyme is used as a marker for tissue neutrophil content. For tissue MPO content, the method of Bradley, et al., was used as described in J. Invest. Dermatol. (1982) 78: 206-209. Biopsies from each treatment group were placed in plastic tubes (15×100 mm) containing 10 ml of 0.5% hexadecyltrimethylammonium bromide (HTAB)in 0.05M potassium phosphate buffer pH 6.0. The tissue was then homogenized with a Brinkmann Polytron homogenizer (10s). […]

P-selectin [3] = biological target: T1, P-selectin (Homo sapiens, UniProt P16109); conditions: literature; cited from earlier work
T1 sequence (P16109 42-830): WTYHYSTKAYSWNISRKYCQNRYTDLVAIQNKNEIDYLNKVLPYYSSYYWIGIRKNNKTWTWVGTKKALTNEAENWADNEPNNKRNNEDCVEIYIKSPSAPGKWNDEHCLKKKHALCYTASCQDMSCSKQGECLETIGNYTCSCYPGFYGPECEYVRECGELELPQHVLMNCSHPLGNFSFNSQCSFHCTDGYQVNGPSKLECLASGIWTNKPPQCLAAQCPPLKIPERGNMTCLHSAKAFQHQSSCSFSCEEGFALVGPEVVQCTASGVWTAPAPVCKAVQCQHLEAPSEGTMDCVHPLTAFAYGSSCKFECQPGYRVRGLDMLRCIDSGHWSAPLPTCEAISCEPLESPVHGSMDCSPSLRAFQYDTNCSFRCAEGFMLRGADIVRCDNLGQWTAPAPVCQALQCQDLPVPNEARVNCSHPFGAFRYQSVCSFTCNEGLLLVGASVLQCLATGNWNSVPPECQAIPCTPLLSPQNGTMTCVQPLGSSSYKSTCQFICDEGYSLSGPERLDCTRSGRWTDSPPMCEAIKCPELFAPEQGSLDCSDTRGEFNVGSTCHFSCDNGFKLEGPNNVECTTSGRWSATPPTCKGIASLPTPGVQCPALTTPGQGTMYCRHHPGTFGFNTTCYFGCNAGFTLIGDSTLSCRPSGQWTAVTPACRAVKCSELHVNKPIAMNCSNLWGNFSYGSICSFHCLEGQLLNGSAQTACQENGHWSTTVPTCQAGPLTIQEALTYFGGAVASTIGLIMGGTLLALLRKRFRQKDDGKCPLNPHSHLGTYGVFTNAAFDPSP

P-selectin [4] = biological target: T1, P-selectin; conditions: anionic polymers; literature; cited from earlier work

Question: With CCCCCCCCCCCCC/C=C/[C@@H](OC(=O)c1ccccc1)[C@H](CO[C@H]1O[C@H](COC(=O)c2ccccc2)[C@H](OCC(=O)O)[C@H](OCC(=O)O)[C@H]1OC(=O)c1ccccc1)NC(=O)CCCCCCCCCCCCCCC [Example 10, (2S,3R,4E)-2-Hexadecanoylamino-3-benzoyloxy-1-[3,4-di-O-carboxy-methyl-2,6-di-O-benzoyl-α-D-galactopyranosyloxy]-4-octadecene] as the compound, how does the pIC50 [1] read?
Answer: Its pIC50 is under 4.00.

Question: What about the “RPA VP % Inhib. (vascular permeability)” value ([2]; 125I-BSA plasma extravasation into skin) of the same compound?
Answer: The value was 54%.

Question: And the “RPA MPO % Inhib. (myeloperoxidase, neutrophil accumulation)” value ([2]; skin MPO activity)?
Answer: Its value is 65%.

Question: Which “binding to P-selectin (in words)” value (P-selectin [3]) does the source give for CC(=O)N[C@H]1C(O)O[C@H](CO)[C@@H](O[C@@H]2O[C@H](CO)[C@H](O)[C@H](O)[C@H]2O)[C@@H]1O[C@@H]1O[C@@H](C)[C@@H](O)[C@@H](O)[C@@H]1O (stereo partly shown) [Le^x] here?
Answer: Its value is “shown to bind”.

Question: For dextran sulfate, which “inhibition of P-selectin mediated adhesion (in words)” value (P-selectin [4]) is on record?
Answer: The value was “shown to inhibit P-selectin mediated adhesion”.

Question: Which “inhibition of P-selectin mediated adhesion (in words)” value (P-selectin [4]) does the source give for fucoidan here?
Answer: Its value is “shown to inhibit P-selectin mediated adhesion”.

Question: Which “inhibition of P-selectin mediated adhesion (in words)” value (P-selectin [4]) does the source give for heparin here?
Answer: Its value is “shown to inhibit P-selectin mediated adhesion”.
